Assay results from patent US20040014212A1, “Preparation and xenotransplantation or porcine islets” (priority 2000, published 2004).

Experiments:
porcine islets [1] = test: Static glucose stimulation (SGS): insulin secretion of cultured porcine islets; assay type: cell-based
Source text: Static glucose stimulation (SGS) is used to assess in vitro function of the porcine islets by exposing them to low and high concentrations of glucose and theophylline. Determination of the in vitro insulin secretory capacity is undertaken on both free islets (after 3 days in culture) and after their subsequent encapsulation or confinement.
Keep the cells 3 days in culture before Static Glucose Stimulation (SGS). SGS involves exposure of the cells to low and high concentration of glucose to check insulin production. Using 0.1 ug/ml concentration add IGF1 and GPE to two plates 24 hours before SGS (day 2 after isolation)

porcine islets [2] = test: as above; assay type: cell-based; conditions: for effect of exposure beyond 24 hrs on insulin production in response to glucose: post isolation
[3] = Incubated 24 hrs with 1.0 ug/ml IgF-1

| Compound | effect of withdrawal of Nicotinamide from the culture media on islet insulin production (porcine islets [1]) | concentration in culture sufficient to produce optimal insulin secretion during glucose challenge (porcine islets [1]; IgF-1 in culture) [µg/mL] | Insulin secretion In response to 19.4 mM Glucose + 10 mM Theophyline 7 days post isolation (porcine islets [1]; [3]) [uU/hr/100 IEQ] | Insulin secretion In response to 19.4 mM Glucose + 10 mM Theophyline After 3 days (porcine islets [1]; [3]) [uU/hr/100 IEQ] | Insulin secretion In response to 19.4 mM Glucose + 10 mM Theophyline After 3 days culture Post isolation (porcine islets [1]; Incubated 3 days With 0.1 ug/ml IgF-1 Without Nicotinamide) [uU/hr/100 IEQ] | increase of insulin response to glucose (porcine islets [1]; porcine islets in culture exposed to IgF-1) [fold] | persistence of increased insulin production post exposure (porcine islets [2]) [days] | Insulin secretion In response to 19.4 mM Glucose + 10 mM Theophyline, increase Compared to control (porcine islets [2]; 3 days post IgF-1 Exposure) | Insulin secretion In response to 19.4 mM Glucose + 10 mM Theophyline, increase Compared to control (porcine islets [2]; 14 days post IgF-1 Exposure) | Insulin secretion In response to 19.4 mM Glucose + 10 mM Theophyline 7 days post isolation (porcine islets [2]; Incubated 7 days with 0.1 ug/ml IgF-1) [uU/hr/100 IEQ] | effect of increasing the concentration in culture on insulin response (porcine islets [2]; above the sufficient concentration) | effect of exposure beyond 24 hrs on insulin production in response to glucose (porcine islets [2]) | effect on insulin production of porcine islet cells (porcine islets [1]; 0.1 μg/ml during culturing, initial exposure of 24 hrs) | Insulin secretion In response to 19.4 mM Glucose + 10 mM Theophyline After 3 days culture Post isolation (porcine islets [2]; Incubated 24 hrs With 0.1 ug/ml IgF-2 day 1, second sub-table) [uU/hr/100 IEQ] | Insulin secretion In response to 19.4 mM Glucose + 10 mM Theophyline After 3 days culture Post isolation (porcine islets [2]; Incubated 7 days with 0.1 ug/ml IgF-2) [uU/hr/100 IEQ] | increase in insulin secretion in response to glucose challenge (porcine islets [2]; Lidocaine during digestion, after 3 days in culture) [fold] | Insulin secretion in response to 19.4 mM Glucose + 10 mM Theophyline After 3 days culture Post isolation (porcine islets [2]; islets from Collagenase digestion, with or without 1 mM Lidocaine) [uU/hr/100 IEQ] |
| --- | --- | --- | --- | --- | --- | --- | --- | --- | --- | --- | --- | --- | --- | --- | --- | --- | --- |
| IgF-1: Human Insulin-like Growth Factor I, a potent mitogenic growth factor | eliminated the benefit of IgF-1 | 0.1 | 57.5 | 56.8 | 47.6 | ≤ 3 | ≥ 14 | 1.5-fold increase | 1.3-fold increase | 58 | No further benefit | no increased benefit | – | – | – | – | – |
| IgF-2: insulin-like growth factor II | – | – | – | – | – | – | ≤ 3 | – | – | – | – | failed to increase | appeared to increase | 32 | 38.4 | – | – |
| CCN(CC)CC(=O)Nc1c(C)cccc1C [Lidocaine, reference compound] | – | – | – | – | – | – | – | – | – | – | – | – | – | – | – | 3 | 163.8 |
